{"source": "patent US9045525B2", "about": "“Amyloid β-protein-specific production-inhibiting polypeptide” (THE DOSHISHA, priority 2012, dated 2015)", "key": {"[1]": {"biological_target": "γ-secretase against βCTF (C99-FLAG) (Homo sapiens, UniProt P05067)", "sequence (P05067 with tags, fused parts or gaps)": "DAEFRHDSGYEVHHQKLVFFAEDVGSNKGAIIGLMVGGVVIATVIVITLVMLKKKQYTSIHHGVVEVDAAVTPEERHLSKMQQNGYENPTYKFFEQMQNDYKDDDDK", "assay": "γ-Secretase activity inhibition experiment in vitro, C99-FLAG substrate", "assay_type": "biochemical", "settings": "polypeptide 1, 5, 10, 20, and 50 μM", "protocol": "(§1) A polypeptide having βCTF (C99-FLAG: SEQ ID NO: 16) and mouse-derived Notch protein having a FLAG peptide at the C-terminal side (modification of NCBI Accession No. Q01705.2; SEQ ID NO: 17; hereunder referred to as “Notch”) shown in FIG. 2(A) were each made into a solution having a final concentration of 50 nM.\n(§2) To these solutions, 9-7 polypeptide, 6-5 polypeptide, #1 polypeptide, #2 polypeptide, #3 polypeptide, and #4 polypeptide were added in such a manner that the final concentrations were 50 μM, followed by reacting with 50 μL of CHAPSO-solubilized membrane fraction (γ-secretase-containing fraction) for 4 hours. The reaction temperature was 37° C. As a negative control experiment, DMSO was used in place of the six types of polypeptides described above.\n(§3) Each sample after completion of the reaction was measured in the following manner. As shown in FIG. 2(A), a sample using C99-FLAG was subjected to Western blotting using a monoclonal antibody (82E-1) that specifically recognizes the N terminal of C99-FLAG, and the amount of Aβ40 protein produced by the cleavarage by γ-secretase was measured. In contrast, the reaction sample using Notch-FLAG was subjected to Western blotting using an anti-FLAG monoclonal antibody, and the amount of NICD produced to the separete by γ-secretase was also measured. FIG. 2(B) and FIG. 2(C) show the results.\n(§4) An experiment was conducted in the same manner as in Experimental Example 1 described above, except that only #1 polypeptide was used and the amount of #1 polypeptide was selected so that the final concentrations were 0.5, 1, 5, 10, 20, and 50 μM.\n(§5) An experiment was conducted in the same manner as in Experimental Example 1 described above, except that S4 polypeptide was used as the polypeptide, and each addition amount was set in such a manner that the final concentrations were 1, 5, 10, 20, and 50 μM. In this Experimental Example, #4 polypeptide was added in such a manner that the final result was 50 μM."}, "[2]": {"biological_target": "γ-secretase against Notch (Mus musculus, UniProt Q01705, V1997L)", "sequence (Q01705 with tags, fused parts or gaps V1997L)": "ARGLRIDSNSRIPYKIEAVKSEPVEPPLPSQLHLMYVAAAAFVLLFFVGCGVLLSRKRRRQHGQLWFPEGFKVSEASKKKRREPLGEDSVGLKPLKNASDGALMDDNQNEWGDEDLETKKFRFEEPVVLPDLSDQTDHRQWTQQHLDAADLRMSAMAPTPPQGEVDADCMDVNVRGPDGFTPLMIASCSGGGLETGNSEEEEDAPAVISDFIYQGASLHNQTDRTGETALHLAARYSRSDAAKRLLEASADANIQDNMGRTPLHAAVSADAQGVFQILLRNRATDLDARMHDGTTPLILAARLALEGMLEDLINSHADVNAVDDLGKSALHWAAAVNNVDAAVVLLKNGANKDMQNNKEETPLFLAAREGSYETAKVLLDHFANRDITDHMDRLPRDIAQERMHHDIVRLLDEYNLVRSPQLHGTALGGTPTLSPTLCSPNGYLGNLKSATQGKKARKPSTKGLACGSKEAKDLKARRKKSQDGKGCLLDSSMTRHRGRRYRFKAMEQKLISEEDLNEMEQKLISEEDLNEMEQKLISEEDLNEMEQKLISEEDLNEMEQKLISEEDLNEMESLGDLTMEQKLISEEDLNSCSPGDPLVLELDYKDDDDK", "assay": "γ-Secretase activity inhibition experiment in vitro, Notch-FLAG substrate", "assay_type": "biochemical", "settings": "polypeptide 1, 5, 10, 20, and 50 μM", "protocol": "as §1, §2, §3, §4, §5"}, "[3]": {"biological_target": "β-secretase against APP (APP-EQ-FLAG) (Homo sapiens, UniProt P05067)", "sequence (P05067 with tags, fused parts or gaps)": "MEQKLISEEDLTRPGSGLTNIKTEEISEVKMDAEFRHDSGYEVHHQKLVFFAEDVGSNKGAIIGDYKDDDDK", "assay": "β-Secretase activity inhibition experiment in vitro, APP-EQ-FLAG substrate", "assay_type": "biochemical", "settings": "polypeptide 1, 5, 10, 20, 50, and 100 μM", "protocol": "A solution containing the polypeptide having APP (APP-EQ-FLAG: SEQ ID NO: 18) as shown in FIG. 5(A) was prepared in such a manner that its final concentration was 50 nM.\nTo this solution, 9-7 polypeptide, 6-5 polypeptide, #1 polypeptide, #2 polypeptide, #3 polypeptide, #4 polypeptide, #5 polypeptide, #6 polypeptide, #7 polypeptide, #8 polypeptide, #9 polypeptide, and #10 polypeptide were added in such a manner that each solution had the final concentration of 50 μM, followed by reacting with 50 μL β-secretase (0.02 U/μL) for 4 hours. The reaction temperature was 37° C. As a negative control experiment, DMSO was used in place of the 12 types of polypeptides mentioned above.\nAfter completion of the reaction, each sample was subjected to Western blotting using a monoclonal antibody (82E-1) that specifically recognizes the N terminal of APP-EQ-FLAG as shown in FIG. 5(A). Thereafter, the amount of Aβ33-FLAG protein separated by β-secretase was measured.\nAn experiment was conducted in the same manner as Experimental Example 4 described above except that S4 and #4 polypeptides were used as the polypeptide and the amounts of these polypeptides added were adjusted so that the final concentrations were 1, 5, 10, 20, 50, and 100 μM."}, "[4]": {"test_system": "CHO-K1 cells (7WD10 cells) that stably expressed APP protein", "assay": "Aβ protein production inhibition experiment in 7WD10 cells (sAPPβ, βCTF, Aβ)", "assay_type": "cell-based", "settings": "polypeptide 25 μM and 50 μM; cells also expressing st6gal", "protocol": "(§6) An experiment was conducted wherein #1, #2, and #4 polypeptides were reacted with CHO-K1 cells (7WD10 cells) that stably expressed APP protein and transiently expressed Notch to confirm the production of Aβ protein and cleavage of Notch protein."}, "[5]": {"test_system": "Notch transiently expressed in CHO-K1 cells (7WD10 cells)", "assay": "Cleavage of Notch protein (NICD) in 7WD10 cells", "assay_type": "cell-based", "settings": "polypeptide 25 μM and 50 μM; cells also expressing st6gal", "protocol": "as §6"}, "[6]": {"test_system": "sialyltransferase (st6gal), substrate of β-secretase, in 7WD10 cells", "assay": "Cleavage of sialyltransferase (st6gal) in 7WD10 cells", "assay_type": "cell-based", "settings": "polypeptide 25 μM and 50 μM", "protocol": "An experiment was conducted in the same manner as Experimental Example 6 except that only S4 polypeptide was used as the polypeptide; the S4 polypeptide was added to have the final concentrations of 25 μM and 50 μM; the cell used in this experiment was CHO-K1 cell (7WD10 cell) that expressed APP protein and transiently expressed Notch and sialyltransferase (st6gal), which is the substrate of β-secretase; and confirmation of cleavage by sialyltransferase was conducted in addition to the confirmation of the production of Aβ protein and cleavage of Notch protein."}}, "note": "“Also recorded” adds a separate entry of the source."}
{"sequence": "FGBTWDYWVYR [S4]", "values": [{"measurement": "cleavage activity of γ-secretase against βCTF", "setting": "[1]", "result": "inhibits more intensely in a concentration-dependent manner the cleavage activity of γ-secretase against βCTF"}, {"measurement": "cleavage activity of γ-secretase against Notch (NICD)", "setting": "[2]", "result": "not inhibited"}, {"measurement": "cleavage activity of β-secretase against APP", "setting": "[3]", "result": "inhibited the cleavage activity of β-secretase against APP, although inferior to #4 polypeptide; also recorded: inhibited the cleavage activity of β-secretase against APP in a concentration-dependent manner"}, {"measurement": "Aβ protein (intracellular Aβ) in the cell lysate", "setting": "[4]", "result": "decreased"}, {"measurement": "amount of Aβ protein (released Aβ) in the cell culture medium", "setting": "[4]", "result": "reduced"}, {"measurement": "sAPPβ production amount in the cell culture medium", "setting": "[4]", "result": "reduced"}, {"measurement": "amount of NICD in the cell lysate", "setting": "[5]", "result": "did not decrease"}, {"measurement": "st6gal production amount in the cell culture medium", "setting": "[6]", "result": "not decreased"}]}
